Measured values reported in patent US20190116835A1, “Sweetness and Taste Improvement of Steviol Glycoside or Mogroside Sweeteners with Flavonids” (The Coca-Cola Company, priority 2016, published 2019).

Columns and labels:
[1] = Taste evaluation by trained panelists: sweetness enhancement of Siamenoside I, compared against sucrose beverages; assay type: in vivo, human; conditions: beverage containing 150 ppm Siamenoside I in acidic water, no Test Mixture 1
Experimental: The ability of Text Mixture 1 to enhance the sweetness of Siamenoside I was evaluated.
(§1) Sample were prepared with the following ingredients:
(§2) Ingredients were added to water or water with Test Mixture 1 while stirring until solids were visibly dissolved and the sample was poured into a glass bottle and stored at 4° C.
The trained panelists then compared the taste and sweetness profiles of (i) the beverage containing 150 ppm Siamenoside I (Table 3) and (ii) the beverage containing 40 ppm Test Mixture 1 and 150 ppm Siamenoside I (Table 4) against the 6%, 8%, and 10% sucrose beverages (Table 5).
(§3) Bottles were removed from the refrigerator and about 25 ml of beverage was poured into 4 oz-plastic cups. Panelists were given mineral water to rinse their mouth before and between tastings. Unsalted crackers were also given to panelists to eat followed by rinsing their mouth with mineral water before tasting the next sample. Panelists were instructed to sip, evaluate the sweetness, and then spit the samples in cups provided for that purpose.

[2] = Taste evaluation by trained panelists: sweetness enhancement of Rebaudioside M, compared against sucrose beverages; assay type: in vivo, human; conditions: beverage containing 150 ppm Rebaudioside M in acidic water, no Test Mixture 1
Experimental: The ability of the following compounds to enhance the sweetness of Rebaudioside M was evaluated:
as §1, §2
Trained panelists compared the taste and sweetness profiles of (i) the beverage containing 150 ppm Rebaudioside M (Table 3) and (ii) the beverage containing 40 ppm Test Mixture 1 and 150 ppm Rebaudioside M (Table 4) against the 6%, 8%, and 10% sucrose beverages (Table 5).
as §3

| Compound | sweetness, equivalent to sucrose beverages [1] | sweetness, as sweet as sucrose beverage [2] |
| --- | --- | --- |
| C[C@H](CC[C@@H](O[C@@H]1O[C@H](CO[C@@H]2O[C@H](CO)[C@@H](O)[C@H](O)[C@H]2O)[C@@H](O)[C@H](O)[C@H]1O[C@@H]1O[C@H](CO)[C@@H](O)[C@H](O)[C@H]1O)C(C)(C)O)[C@H]1CC[C@@]2(C)[C@@H]3CC=C4[C@@H](CC[C@H](O[C@@H]5O[C@H](CO)[C@@H](O)[C@H](O)[C@H]5O)C4(C)C)[C@]3(C)[C@H](O)C[C@]12C [Siamenoside I, siamenoside I] | 4%-6% |  |
| C=C1C[C@@]23CC[C@H]4[C@@](C)(CCC[C@@]4(C)C(=O)O[C@@H]4O[C@H](CO)[C@@H](O)[C@H](O[C@@H]5O[C@H](CO)[C@@H](O)[C@H](O)[C@H]5O)[C@H]4O[C@@H]4O[C@H](CO)[C@@H](O)[C@H](O)[C@H]4O)[C@@H]2CC[C@]1(O[C@@H]1O[C@H](CO)[C@@H](O)[C@H](O[C@@H]2O[C@H](CO)[C@@H](O)[C@H](O)[C@H]2O)[C@H]1O[C@@H]1O[C@H](CO)[C@@H](O)[C@H](O)[C@H]1O)C3 [Rebaudioside M, rebaudioside M] |  | 5-6 % sucrose |
